Laboratory results as given in ChEMBL document CHEMBL4373639, “How mithramycin stereochemistry dictates its structure and DNA binding function” (Medchemcomm, 2019).
pKd: −log10 of the molar value.

Assay: Binding affinity to dsDNA oligomer GAGGCCTC (unknown origin) assessed as binding constant incubated for 16 hrs in presence of […] by fluorescence based assay

Compound: COC(=O)[C@H](Cc1ccccc1)NC(=O)[C@@H](OC)[C@@H]1Cc2cc3cc(O[C@H]4C[C@@H](O[C@H]5C[C@@H](O)[C@H](O)[C@@H](C)O5)[C@H](O)[C@@H](C)O4)c(C)c(O)c3c(O)c2C(=O)[C@H]1O[C@H]1C[C@@H](O[C@H]2C[C@@H](O[C@H]3C[C@](C)(O)[C@H](O)[C@@H](C)O3)[C@H](O)[C@@H](C)O2)[C@H](O)[C@@H](C)O1
- pKd: 5.80

Compound: CO[C@H](C(=O)[C@@H](O)[C@@H](C)O)[C@@H]1Cc2cc3cc(O[C@H]4C[C@@H](O[C@H]5C[C@@H](O)[C@H](O)[C@@H](C)O5)[C@H](O)[C@@H](C)O4)c(C)c(O)c3c(O)c2C(=O)[C@H]1O[C@H]1C[C@@H](O[C@H]2C[C@@H](O[C@H]3C[C@](C)(O)[C@H](O)[C@@H](C)O3)[C@H](O)[C@@H](C)O2)[C@H](O)[C@@H](C)O1
- pKd: > 6.00
